# Tests used:
# UPCI-SCC-131 cells = experiment: MTT antiproliferative assay, UPCI-SCC-131; type: cell-based, human; conditions: Homo sapiens; for inhibition at 10 µM: UPCI-SCC-131, 10 μM; for inhibition at 10 µM / inhibition at 30 µM: 72 h, read-out: Growth inhibition, % ± SEM; for inhibition at 30 µM: UPCI-SCC-131, 30 μM; for IC50: UPCI-SCC-131, 72 h, read-out: calculated IC50 value
# Procedure: (§1) The antiproliferative properties of the newly synthesized compounds (9–20) and their starting materials (4 and 5) were determined on a panel of human adherent cancer cell lines. MCF-7, MDA-MB-231 and T47D were isolated from breast cancers differing in biochemical background, while A2780 cells were isolated from ovarian cancer. HeLa and SiHa are cervical cancer cell lines positive for HPV-18 and HPV-16, respectively, while C33-A cervical cancer cells are negative for HPV. Moreover, two oropharyngeal cancer cell lines were also utilized: the HPV-negative UPCI-SCC-131 and HPV-16 positive UPCI-SCC-154. The cancer selectivity of compounds was tested on the non-cancerous mouse embryo fibroblast cell line NIH/3T3. All cell lines were purchased from European Collection of Cell Cultures (ECCAC, Salisbury, UK) exception for SiHa and C33-A (American Tissue Culture Collection, Manassas, VA, USA) and HN-SCC-131 and UPCI-SCC-154 (German Collection of Microorganisms and Cell Cultures GmbH, Braunschweig, Germany). Cells were cultivated in minimal essential medium supplemented with 10% fetal bovine serum, 1% non-essential amino acids and an antibiotic–antimycotic mixture. The medium of oropharyngeal cancer cells additionally contained 2.0 mM L-glutamine. All media and supplements were obtained from Lonza Group Ltd., Basel, Switzerland. Near-confluent cancer cells were seeded onto a 96-well microplate at a density of 5,000 cells/well, except for C33-A which were seeded at 10,000/well. After overnight standing, new medium containing the tested compounds at 10 and 30 µM final concentration was added. After incubation for 72 h at 37 °C in humidified air containing 5% CO2, the living cells were assayed by the addition of 20 μL of 5 mg/ml 3-(4,5-dimethylthiazol-2-yl)-2,5-diphenyltetrazolium bromide (MTT) solution. MTT was converted by intact mitochondrial reductase and precipitated as purple crystals during a 4-h contact period. The medium was next removed and the precipitated formazan crystals were dissolved in 100 μL of DMSO during a 60-min period of shaking at 37 ^оC.
# (§2) All in vitro experiments were carried out twice with five parallels. Stock solutions of the tested substances (10 mM) were prepared in DMSO. […] Cisplatin (Ebewe Pharma GmbH, Unterach, Austria) was used as positive control.
# UPCI-SCC-154 cells = experiment: MTT antiproliferative assay, UPCI-SCC-154; type: cell-based, human; conditions: Homo sapiens; for inhibition at 10 µM: UPCI-SCC-154, 10 μM; for inhibition at 10 µM / inhibition at 30 µM: 72 h, read-out: Growth inhibition, % ± SEM; for inhibition at 30 µM: UPCI-SCC-154, 30 μM; for IC50: UPCI-SCC-154, 72 h, read-out: calculated IC50 value
# Procedure: as §1, §2
# HeLa cells = experiment: MTT antiproliferative assay, HeLa; type: cell-based, human; conditions: Homo sapiens, 72 h; for inhibition at 10 µM / inhibition at 30 µM: read-out: Growth inhibition, % ± SEM; for IC50: read-out: calculated IC50 value
# Procedure: as §1, §2
# SiHa cells = experiment: MTT antiproliferative assay, SiHa; type: cell-based, human; conditions: Homo sapiens, 72 h; for inhibition at 10 µM / inhibition at 30 µM: read-out: Growth inhibition, % ± SEM; for IC50: read-out: calculated IC50 value
# Procedure: as §1, §2
# C33-A cells = experiment: MTT antiproliferative assay, C33-A; type: cell-based, human; conditions: Homo sapiens, C-33-A, C33-A, 72 h; for inhibition at 10 µM / inhibition at 30 µM: read-out: Growth inhibition, % ± SEM; for IC50: read-out: calculated IC50 value
# Procedure: as §1, §2
# A2780 cells = experiment: MTT antiproliferative assay, A2780; type: cell-based, human; conditions: Homo sapiens; for IC50: A2780, 72 h, read-out: calculated IC50 value; for inhibition at 10 µM: A2780, 10 μM; for inhibition at 10 µM / inhibition at 30 µM: 72 h, read-out: Growth inhibition, % ± SEM; for inhibition at 30 µM: A2780, 30 μM
# Procedure: as §1, §2
# MCF-7 cells = experiment: MTT antiproliferative assay, MCF-7; type: cell-based, human; conditions: Homo sapiens, MCF7; for inhibition at 10 µM: MCF-7, 10 μM; for inhibition at 10 µM / inhibition at 30 µM: 72 h, read-out: Growth inhibition, % ± SEM; for inhibition at 30 µM: MCF-7, 30 μM; for IC50: MCF-7, 72 h, read-out: calculated IC50 value
# Procedure: as §1, §2
# MDA-MB-231 cells = experiment: MTT antiproliferative assay, MDA-MB-231; type: cell-based, human; conditions: Homo sapiens; for IC50: MDA-MB-231, 72 h, read-out: calculated IC50 value; for inhibition at 10 µM: MDA-MB-231, 10 μM; for inhibition at 10 µM / inhibition at 30 µM: 72 h, read-out: Growth inhibition, % ± SEM; for inhibition at 30 µM: MDA-MB-231, 30 μM
# Procedure: as §1, §2
# T47D cells = experiment: MTT antiproliferative assay, T47D; type: cell-based, human; conditions: Homo sapiens, 72 h; for inhibition at 10 µM / inhibition at 30 µM: read-out: Growth inhibition, % ± SEM; for IC50: read-out: calculated IC50 value
# Procedure: as §1, §2
# [1] = tested on: non-cancerous mouse embryo fibroblast (NIH/3T3) cells; experiment: MTT assay on non-cancerous fibroblasts (tumour selectivity); type: cell-based; conditions: Mus musculus, NIH3T3; for inhibition at 10 µM: NIH/3T3, 10 μM; for inhibition at 10 µM / inhibition at 30 µM: 72 h, read-out: Growth inhibition, % ± SEM; for inhibition at 30 µM: NIH/3T3, 30 μM; for IC50: NIH/3T3, 72 h, read-out: calculated IC50 value
# Procedure: as §1, §2
SMILES,inhibition at 10 µM (UPCI-SCC-131 cells) [%],inhibition at 30 µM (UPCI-SCC-131 cells) [%],IC50 (UPCI-SCC-131 cells) [µM],inhibition at 10 µM (UPCI-SCC-154 cells) [%],inhibition at 30 µM (UPCI-SCC-154 cells) [%],IC50 (UPCI-SCC-154 cells) [µM],inhibition at 10 µM (HeLa cells) [%],inhibition at 30 µM (HeLa cells) [%],IC50 (HeLa cells) [µM],inhibition at 10 µM (SiHa cells) [%],inhibition at 30 µM (SiHa cells) [%],IC50 (SiHa cells) [µM],inhibition at 10 µM (C33-A cells) [%],inhibition at 30 µM (C33-A cells) [%],IC50 (C33-A cells) [µM],IC50 (A2780 cells) [µM],inhibition at 10 µM (A2780 cells) [%],inhibition at 30 µM (A2780 cells) [%],inhibition at 10 µM (MCF-7 cells) [%],inhibition at 30 µM (MCF-7 cells) [%],further results
C=C1C[C@H]2[C@@H]3CCc4cc(OCc5ccccc5)ccc4[C@H]3CC[C@@]2(C)C1=O [Compound 5],99.54 ± 0.33,99.94 ± 0.44,2.38,96.4 ± 0.89,100.3 ± 0.82,4.5,75.1 ± 3.73,99.65 ± 0.25,6.99,98.98 ± 0.26,99.97 ± 0.42,2.3,93.9 ± 2.56,100 ± 0.23,3.75,6.7,94.8 ± 2.13,100.9 ± 0.18,99.7 ± 0.43,100.6 ± 0.31,IC50 (MCF-7 cells): 3.35 µM; IC50 (MDA-MB-231 cells): 4.07 µM; inhibition at 10 µM (MDA-MB-231 cells): 97.2 ± 1.46%; inhibition at 30 µM (MDA-MB-231 cells): 98.57 ± 0.89%; inhibition at 10 µM (T47D cells): 100.2 ± 0.28%; inhibition at 30 µM (T47D cells): 101.3 ± 0.47%; IC50 (T47D cells): 3.47 µM; inhibition at 10 µM [1]: 100.8 ± 0.16%; inhibition at 30 µM [1]: 100.3 ± 0.25%; IC50 [1]: 2.74 µM
"C=C1C[C@H]2[C@@H]3CCc4cc(OC)ccc4[C@H]3CC[C@@]2(C)C1=O [Compound 4, 3-methoxy-16-methylene derivative]",99.8 ± 0.36,99.88 ± 0.39,3.17,97.3 ± 1.1,97.81 ± 0.65,5.15,85.1 ± 2.44,99.43 ± 0.28,4.45,97.44 ± 0.54,99.28 ± 0.42,3.31,99.57 ± 0.61,99.55 ± 0.39,3.6,6.24,96.9 ± 1.52,100.5 ± 0.22,99.52 ± 0.51,99.83 ± 0.44,IC50 (MCF-7 cells): 3.7 µM; IC50 (MDA-MB-231 cells): 3.97 µM; inhibition at 10 µM (MDA-MB-231 cells): 99.97 ± 0.71%; inhibition at 30 µM (MDA-MB-231 cells): 94.6 ± 2.26%; inhibition at 10 µM (T47D cells): 99.68 ± 0.74%; inhibition at 30 µM (T47D cells): 99.92 ± 0.71%; IC50 (T47D cells): 3.46 µM; inhibition at 10 µM [1]: 101.1 ± 0.67%; inhibition at 30 µM [1]: 100.9 ± 0.71%; IC50 [1]: 2.79 µM
